Data set [1] has as its target T1, Peroxisome proliferator-activated receptor alpha (Homo sapiens, UniProt Q07869).
T1 sequence (Q07869 whole entry): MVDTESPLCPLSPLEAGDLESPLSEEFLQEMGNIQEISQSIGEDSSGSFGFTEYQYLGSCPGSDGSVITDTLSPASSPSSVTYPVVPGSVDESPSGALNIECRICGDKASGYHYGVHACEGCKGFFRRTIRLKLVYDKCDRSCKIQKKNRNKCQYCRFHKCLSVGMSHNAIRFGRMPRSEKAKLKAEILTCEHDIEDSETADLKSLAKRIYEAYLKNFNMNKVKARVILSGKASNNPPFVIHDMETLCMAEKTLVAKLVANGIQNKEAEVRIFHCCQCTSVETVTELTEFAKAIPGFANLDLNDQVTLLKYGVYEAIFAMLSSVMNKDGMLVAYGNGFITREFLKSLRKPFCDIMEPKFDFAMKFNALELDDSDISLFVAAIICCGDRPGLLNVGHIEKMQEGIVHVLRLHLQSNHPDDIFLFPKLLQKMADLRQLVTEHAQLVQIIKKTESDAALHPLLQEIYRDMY
Kind of data set: Agonist activity at human PPARalpha by transactivation assay. The data set is classed as functional.

Data set [2] addresses T2, Peroxisome proliferator-activated receptor alpha (Homo sapiens) (UniProt Q07869).
T2 sequence (whole entry): T1 sequence (Q07869 whole entry)
Kind of data set: Agonist activity at human PPARalpha by transactivation assay relative to WY-14643. The data set is classed as functional.

In data set [3] the target is T3, Peroxisome proliferator-activated receptor gamma (Homo sapiens, UniProt P37231).
T3 sequence (P37231 whole entry): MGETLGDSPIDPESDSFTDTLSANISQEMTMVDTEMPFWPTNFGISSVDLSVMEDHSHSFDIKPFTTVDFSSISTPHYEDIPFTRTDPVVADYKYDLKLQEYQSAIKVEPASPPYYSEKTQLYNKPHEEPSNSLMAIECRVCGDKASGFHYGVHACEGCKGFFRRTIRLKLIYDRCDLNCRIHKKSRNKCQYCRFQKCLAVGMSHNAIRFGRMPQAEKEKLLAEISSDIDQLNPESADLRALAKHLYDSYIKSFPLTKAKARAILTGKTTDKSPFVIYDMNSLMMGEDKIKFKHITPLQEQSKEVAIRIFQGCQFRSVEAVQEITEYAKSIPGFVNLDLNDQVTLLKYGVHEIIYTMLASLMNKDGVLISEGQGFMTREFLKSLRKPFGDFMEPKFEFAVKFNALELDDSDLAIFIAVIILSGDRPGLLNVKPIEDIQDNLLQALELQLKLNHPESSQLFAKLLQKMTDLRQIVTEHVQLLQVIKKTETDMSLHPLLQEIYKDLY
Description: Agonist activity at human PPARgamma by transactivation assay

The target of data set [4] is T4, Peroxisome proliferator-activated receptor delta (Homo sapiens, UniProt Q03181).
T4 sequence (Q03181 whole entry): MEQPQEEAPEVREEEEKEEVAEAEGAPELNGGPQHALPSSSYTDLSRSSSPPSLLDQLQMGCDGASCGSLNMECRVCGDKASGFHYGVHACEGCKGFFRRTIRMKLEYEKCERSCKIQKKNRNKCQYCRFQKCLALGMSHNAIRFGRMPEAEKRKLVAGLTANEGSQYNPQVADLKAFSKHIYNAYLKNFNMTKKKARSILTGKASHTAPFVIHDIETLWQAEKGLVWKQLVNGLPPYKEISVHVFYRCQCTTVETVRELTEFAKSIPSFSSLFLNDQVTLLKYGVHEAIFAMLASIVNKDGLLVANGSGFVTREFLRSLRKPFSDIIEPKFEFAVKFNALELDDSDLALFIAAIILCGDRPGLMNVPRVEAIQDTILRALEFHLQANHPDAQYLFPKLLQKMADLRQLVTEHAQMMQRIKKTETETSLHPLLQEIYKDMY
Kind of data set: Agonist activity at human PPARdelta by transactivation assay. It is filed as functional.

A short description of data set [5]: Oral bioavailability in rat at 2.5 mg/kg. Conditions: in vivo. The data set is classed as ADME, organism-based.
Data set [6] can be described thus: Half life in rat at 2.5 mg/kg, po. It is filed as ADME, organism-based. Set-up: dose 2.5 mg/kg, route oral. The conditions noted are these: in vivo.
The nature of data set [7]: Cmax in rat at 2.5 mg/kg, po. It is filed as ADME, organism-based. Set-up: dose 2.5 mg/kg, route oral. The conditions noted are these: in vivo.

With `CCO[C@@H](Cc1ccc(OC/C=C/c2cc(C#Cc3ccccc3)cc(C#Cc3ccccc3)c2)cc1)C(=O)O`, the EC50 in data set [1] is 500 nM; in data set [3] it was 3100 nM. Besides, the Activity in data set [2] came to 108%.

Consider `CCO[C@@H](Cc1ccc(OC/C=C/c2cc(Br)cc(Br)c2)cc1)C(=O)O`, for which the values for the EC50 in data set [1], in data set [4] and in data set [3] were 300 nM, 20 µM and 4100 nM, respectively. The Activity in data set [2] worked out at 121%.

In the case of `CCO[C@@H](Cc1ccc(OC/C=C/c2cc(OC3CCCC3)cc(OC3CCCC3)c2)cc1)C(=O)O`, the concentration giving a half-maximal response (EC50) was 20 nM in data set [1], 15 µM in data set [4] and 300 nM in data set [3]. The molecule also returned an Activity in data set [2] of 135%.

For the molecule `CCO[C@@H](Cc1ccc(OC/C=C/c2cc(/C=C/c3ccccc3)cc(/C=C/c3ccccc3)c2)cc1)C(=O)O`, the values for the concentration for a half-maximal effect (EC50) in data set [1] and in data set [3] were 90 nM and 3000 nM, respectively. Moreover, the Activity in data set [2] stood at 66%.

Turning to `CCO[C@@H](Cc1ccc(OC/C=C/c2cc(OCC(F)(F)F)cc(OCC(F)(F)F)c2)cc1)C(=O)O`, the concentration giving a half-maximal response (EC50) in data set [1] came out at 2 nM; in data set [4] it was 4 µM; in data set [3] it was 800 nM. In data set [2], this molecule had an Activity of 149%.

As for `CCO[C@@H](Cc1ccc(OC/C=C/c2cc(-c3ccc(C(C)(C)C)cc3)cc(-c3ccc(C(C)(C)C)cc3)c2)cc1)C(=O)O`, the EC50 in data set [1] came to 14000 nM; in data set [3] it was 1000 nM. The Activity in data set [2] was found to be 110%.

For `CCOc1cc(/C=C/COc2ccc(C[C@H](OCC)C(=O)O)cc2)cc(OCC)c1`, the EC50 in data set [1] was 20 nM; in data set [4], 7.9 µM; in data set [3], 200 nM. Also, in data set [2], the Activity amounted to 197%. For the same molecule, the bioavailability in data set [5] amounted to 86%. In data set [6], this molecule displayed a half-life of 130 min. The peak level in data set [7] (Cmax) was 6160 ng/mL.

Regarding `CCO[C@@H](Cc1ccc(OC/C=C/c2ccccc2)cc1)C(=O)O`, the concentration giving a half-maximal response (EC50) in data set [1] is 1600 nM; in data set [4], 18 µM; in data set [3] it was 8000 nM. For the same molecule, the Activity in data set [2] is 169%.

With `CCO[C@@H](Cc1ccc(OC/C=C(\C)c2ccc(-c3ccccc3)cc2)cc1)C(=O)O`, a half-maximal response in data set [1] (EC50) required 500 nM. This molecule also came in with an Activity in data set [2] of 158%.

Consider `CCO[C@@H](Cc1ccc(OC/C=C/c2cc(-c3ccccc3)cc(-c3ccccc3)c2)cc1)C(=O)O`, for which the EC50 came to 20 nM in data set [1], 4 µM in data set [4] and 200 nM in data set [3]. Besides, the Activity in data set [2] was determined as 30%.

As for `CCO[C@@H](Cc1ccc(OC/C=C/c2cc(OC(=O)c3ccccc3)cc(OC(=O)c3ccccc3)c2)cc1)C(=O)O`, the EC50 worked out at 50 nM in data set [1] and 190 nM in data set [3]. In data set [2], this molecule registered an Activity of 121%.

On to `CCO[C@@H](Cc1ccc(OC/C=C/c2cc(C(F)(F)F)cc(C(F)(F)F)c2)cc1)C(=O)O`, for which the concentration giving a half-maximal response (EC50) in data set [1] was found to be 20 nM; in data set [4] it was 1.4 µM; in data set [3], 400 nM. Moreover, the Activity in data set [2] was 195%.

Turning to `CCO[C@@H](Cc1ccc(OC/C=C/c2cc(CCc3ccccc3)cc(CCc3ccccc3)c2)cc1)C(=O)O`, the EC50 was 30 nM in data set [1] and 5100 nM in data set [3]. In data set [2], the Activity is 118%.

Turning to `CCO[C@@H](Cc1ccc(OC/C=C/c2cc(OC)cc(OC)c2)cc1)C(=O)O`, in data set [2], the Activity was determined as 186%. Besides, the EC50 in data set [4] came out at 13 µM.

For `CCO[C@@H](Cc1ccc(OC/C=C/c2cc(OC(C)C)cc(OC(C)C)c2)cc1)C(=O)O`, the figures for the EC50 in data set [1], in data set [4] and in data set [3] were 4 nM, 6 µM and 80 nM, respectively. In data set [2], this molecule displayed an Activity of 207%. Moreover, the bioavailability in data set [5] turned out to be 95%. This molecule also yielded a half-life in data set [6] of 145 min. Moreover, the Cmax in data set [7] stood at 1840 ng/mL.

The EC50 is the concentration that produces a half-maximal response. The term bioavailability denotes the share of a dose that reaches the circulation, judged against a reference dose that is usually intravenous. A low value points to poor availability. By half-life is commonly meant how long it takes for the measured level to halve. A lower half-life goes with fast loss. By Cmax is commonly meant the peak of the concentration-time curve.
